Source: PMC10285648, “iTAG an optimized IMiD-induced degron for targeted protein degradation in human and murine cells” (iScience, 2023)

How the values were obtained:
cMYC-EGFP-DCD19 = experiment: Flow cytometry of EGFP signal, cMYC-EGFP-DCD19 in HMEC; type: cell-based, human; conditions: 10uM, 4h
Text: (§1) To systematically delineate the optimal DCD/degrader combination for targeted protein degradation, we undertook a matrix approach evaluating all 23 DCD tags against 6 small molecule degraders. […] To control for any potential off-target effects of the IMiD/CeLMOD agents that could indirectly affect the target of interest, we designed controls in which the specific DCD and the EGFP sequences were interspaced by a P2A ribosomal “skipping” sequence,[32] leading to separate translation of the DCD and the target protein (Figure 1A). These constructs were then inserted into a doxycycline-inducible lentiviral vector system and stably expressed in hTERT immortalized human mammary epithelial cells (HMEC), a suitable model to assess the functional consequences of cMYC degradation. cMYC was tagged at the C-terminus end for the initial screening experiments.
(§2) Figure 1 Design and experimental evaluation of the DCD tags (A) Representation of the experimental pipeline used to evaluate the different DCD constructs. […] Median EGFP intensity was measured in each condition using flow cytometry (3 independent experiments, normalized to the control and represented as mean ± SD). […] The protein lysates were probed for cMYC levels using western blotting. […] Target loss was evaluated either by measuring EGFP median intensity using flow cytometry or western blotting for cMYC protein (3 independent experiments, normalized to the control and represented as mean ± SD). […] Target loss was evaluated as in (D) (3 independent experiments, normalized to the control and represented as mean ± SD). […] Protein lysates were collected and probed for cMYC and p21 using western blotting. […] Protein lysates were collected and probed for cMYC and p21 using western blotting. […] These were left out as controls with no test substance.
(§3) Following degrader treatment cells were collected and DAPI was added to the cell suspension at 1 μg/mL to allow the exclusion of dead cells. EGFP signal was measured using BD LSR II flow cytometer (BD Biosciences). FlowJo 10 Software (FlowJo) was used for data processing.

Flag-HA-DCD19-EGFP = experiment: Degradation of Flag-HA-DCD19-EGFP in murine cells; type: cell-based, mouse; conditions: 2208L and PyMT, 24 h, western blotting
Description: (§4) Given the high degradation efficiency of DCD23 in human cells, we sought to test the applicability of this system in murine cells.
(§5) The protein lysates were probed for EGFP using western blotting. […] EGFP signal was then measured using flow cytometry. (3 independent experiments, normalized to the control and represented as mean ± SD). […] Data are plotted as Log2 fold change relative to DMSO versus Log10 of p value.

[1] = Plasma CC220 level in tumor-bearing mice; type: in vivo; conditions: mouse, 30 mg/kg oral, 24h post administration
cMYC-EGFP-DCD23 = experiment: Degradation of cMYC-EGFP-DCD23 in HMEC (flow cytometry, western blotting); type: cell-based, human
Text: as §1, §2, §3
Cells were lysed with SDS lysis buffer (2% SDS, 10% Glycerol, 50mM Tris pH 6.8) and boiled at 95°C for 30min. Protein concentration was measured using Pierce BCA Protein Assay Kit (ThermoFischer) following manufacturer’s recommendations. Samples were ran in NuPAGETM 10% Bis-Tris Midi electrophoresis gels (Invitrogen) using NuPAGETM MES SDS running buffer (ThermoFischer Scientific).
For western blotting membranes were blocked in a solution of 5% (w/v) bovine serum albumin (BSA; Sigma-Aldrich) dissolved in TBS-0.1% Tween 20 (Sigma-Aldrich) then incubated at 4°C overnight with the primary antibodies diluted in 5% (w/v) BSA/TBS-T. The membranes where then washed and incubated with anti-mouse and/or anti-rabbit secondary antibodies (LI-COR Biosciences) for 2h at RT diluted in 5% (w/v) BSA/TBS-T then washed and imaged using the LI-COR Odyssey (LI-COR Biosciences). Images were analyzed using Image Studio Lite software (LI-COR Biosciences).

Flag-HA-DCD23-EGFP = experiment: Degradation of Flag-HA-DCD23-EGFP in murine cells; type: cell-based, mouse; conditions: for DC50 / DCmax: 24h, flow cytometry
Description: as §4, §5
As an additional validation of iTAG (DCD23) induced degradation, we tested the same constructs in murine colorectal carcinoma cells (CT26) where we saw similar loss of EGFP with a panel of IMiD/CeLMODs (Figure S9B).

SMILES: O=C1CC[C@H](N2Cc3c(OCc4ccc(CN5CCOCC5)cc4)cccc3C2=O)C(=O)N1 [CC220, Iberdomide]
- loss of cMYC-EGFP signal (cMYC-EGFP-DCD19): robust loss of cMYC-EGFP signal
- degradation of DCD19 tagged EGFP (Flag-HA-DCD19-EGFP): not degraded
- residual plasma level [1]: nanomolar range
- c-MYC levels after washout (cMYC-EGFP-DCD23; 10μM 4h, then drug washed out, 24h or 48h): restored back to pre-treatment levels
- time to significant degradation of c-MYC tagged with DCD23 (cMYC-EGFP-DCD23; HMEC, 10uM): ≤ 15 min
- p21 levels after degradation of DCD23-tagged cMYC (cMYC-EGFP-DCD23; HMEC, 10μM, 16h, western blotting): restoration of p21 levels
- DC50 (cMYC-EGFP-DCD23; HMEC, 4h): 2 nM
- DCmax at 4h (cMYC-EGFP-DCD23; HMEC, 4h): 75%
- time of onset of loss of EGFP signal (Flag-HA-DCD23-EGFP; 2208L and PyMT): ≤ 1 h
- degradation of DCD23 tagged EGFP (Flag-HA-DCD23-EGFP; 2208L and PyMT, 24 h, western blotting): efficiently degraded
- DC50 (Flag-HA-DCD23-EGFP; 2208L): 2.7 nM
- DCmax (Flag-HA-DCD23-EGFP; 2208L): 88%
- DC50 (Flag-HA-DCD23-EGFP; PyMT): 4.3 nM
- DCmax (Flag-HA-DCD23-EGFP; PyMT): 81%
